Measured values from patent publication US6670363B1, “Azole compounds as therapeutic agents for fungal infections” (Ranbaxy Laboratories Limited, priority 2000, dated 2003).
≈ marks a conversion by molar mass, not a printed value.

Columns and labels:
Type in all cases: cell-based
[1] = tested on: A. fumigatus s 1008; test: In vitro MIC, NCCLS M38P broth method (RPMI 1640/MOPS pH7), Aspergillus fumigatus; conditions: A. fumigatus strain 1008
[2] = tested on: Candida; test: In vitro MIC, NCCLS M27A, Candida species; design: MIC, Candida albicans 1.549 / MIC, Candida albicans Y-01-19 / MIC, C. krusei 766-1 / MIC, C. krusei Q. C / MIC, Candida tropicalis ATCC / MIC, C. glabrata 90030: unit not given beside the values; MIC, Candida albicans A 26 / MIC, C. parapsilosis Q. C.: unit not given here; conditions: for MIC, C. glabrata 90030: C. glabrata strain 90030; for MIC, C. krusei 766-1: C. krusei strain 766-1; for MIC, C. krusei Q. C: C. krusei strain Q. C; for MIC, C. parapsilosis Q. C.: C. parapsilosis strain Q. C.; for MIC, Candida albicans 1.549: Candida albicans strain 1.549; for MIC, Candida albicans A 26: Candida albicans strain A 26; for MIC, Candida albicans Y-01-19: Candida albicans strain Y-01-19
[3] = tested on: Cryptococcus neoformans; test: In vitro MIC, NCCLS M27A, Cryptococcus neoformans; design: MIC, C. neoformans I: unit not given beside the values; MIC, C. neoformans M 106: unit not given here; conditions: for MIC, C. neoformans I: C. neoformans strain I; for MIC, C. neoformans M 106: C. neoformans strain M 106
[4] = tested on: Histoplasma capsulatum

Compound | MIC, A. fumigatus 1008 [1] | MIC, C. glabrata 90030 [2] | MIC, C. krusei 766-1 [2] | MIC, C. krusei Q. C [2] | MIC, C. parapsilosis Q. C. [2] | MIC, Candida albicans 1.549 [2] | MIC, Candida albicans A 26 [2] | MIC, Candida albicans Y-01-19 [2] | MIC, Candida tropicalis ATCC [2] | MIC, C. neoformans I [3] | MIC, C. neoformans M 106 [3] | MIC, H. capsulatum [4] [µg/mL]
C[C@@H](n1ncn(-c2ccc(N3CCN(c4ccc(Cl)cc4)CC3)cc2)c1=O)[C@](O)(Cn1cncn1)c1ccc(F)cc1F [Compound 1, 2-{[1R2R/1S2S]-2-(2,4-Difluorophenyl)-2-hydroxy-1-methyl-3-(1H-1,2,4-triazol-1-yl)propyl}-4-{4-[4-(4-chlorophenyl)-1-piperazinyl]phenyl}-3-(2H,4H)-1,2,4-triazolone] | 0.12 | 0.25 | 0.25 | 0.12 | <0.03 | 0.12 | <0.03 | 0.12 | <0.03 | <0.03 | <0.03 | 0.06 (≈ 0.0988 µM)
C[C@@H](n1ncn(-c2ccc(N3CCN(c4ccc(Cl)cc4)CC3)cc2)c1=O)[C@@](O)(Cn1cncn1)c1ccc(F)cc1F [Compound 2, 2-{[1R2S/1S2R]-2-(2,4-Difluorophenyl)-2-hydroxy-1-methyl-3-(1H-1,2,4-triazol-1-yl)propyl}-4-{4-[4-(4-chlorophenyl)-1-piperazinyl]phenyl}-3-(2H,4H)-1,2,4-triazolone] | >16 | 0.50 | 2.00 | 1.00 | <0.03 | 1.00 | <0.03 | 0.25 | <0.03 | <0.03 | <0.03 | < 0.03
C[C@@H](n1ncn(-c2ccc(N3CCN(c4ccc([N+](=O)[O-])cc4[N+](=O)[O-])CC3)cc2)c1=O)[C@](O)(Cn1cncn1)c1ccc(F)cc1F [Compound 3, 2-{[1R2R/1S2S]-2-(2,4-Difluorophenyl)-2-hydroxy-1-methyl-3-(1H-1,2,4-triazol-1-yl)propyl}-4-{4-[4-(2,4-dinitrophenyl)-1-piperazinyl]phenyl}-3-(2H,4H)-1,2,4-triazolone] | 0.25 | 0.25 | 1.00 | 0.50 | <0.03 | 0.12 | <0.03 | 0.50 | <0.03 | <0.03 | <0.03 | < 0.03
C[C@@H](n1ncn(-c2ccc(N3CCN(c4ccc([N+](=O)[O-])cc4[N+](=O)[O-])CC3)cc2)c1=O)[C@@](O)(Cn1cncn1)c1ccc(F)cc1F [Compound 4, 2-{[1R2S/1S2R]-2-(2,4-Difluorophenyl)-2-hydroxy-1-methyl-3-(1H-1,2,4-triazol-1-yl)propyl}-4-{4-[4-(2,4-dinitrophenyl)-1-piperazinyl]phenyl}-3-(2H,4H)-1,2,4-triazolone] | >16 | 2.00 | >16 | >16 | 0.25 | 4.00 | <0.03 | >16 | <0.03 | 0.25 | 1.00 | 0.5 (≈ 0.755 µM)
C[C@@H](n1ncn(-c2ccc(N3CCN(c4ccccc4)CC3)cc2)c1=O)[C@](O)(Cn1cncn1)c1ccc(F)cc1F [Compound 5] | 0.50 | 1.00 | 0.50 | 0.12 | <0.03 | 2.00 | <0.03 | 0.12 | <0.03 | <0.03 | <0.03 | < 0.03
C[C@@H](n1ncn(-c2ccc(N3CCN(c4ccccc4)CC3)cc2)c1=O)[C@@](O)(Cn1cncn1)c1ccc(F)cc1F [Compound 6, 2-{[1R2S/1S2R]-2-(2,4-Difluorophenyl)-2-hydroxy-1-methyl-3-(1H-1,2,4-triazol-1-yl)propyl}-4-[4-(1-phenylpiperazinyl)phenyl]-3-(2H,4H)-1,2,4-triazolone] | >16 | >16 | >16 | 16.0 | 0.125 | 2.00 | <0.03 | 8.00 | <0.03 | 0.25 | 2.00 | 0.12 (≈ 0.21 µM)
C[C@@H](n1ncn(-c2ccc(N3CCN(c4ccc(Cl)c(Cl)c4)CC3)cc2)c1=O)[C@](O)(Cn1cncn1)c1ccc(F)cc1F [Compound 7, 2-{[1R2R/1S2S]-2-(2,4-Difluorophenyl)-2-hydroxy-1-methyl-3-(1H-1,2,4-triazol-1-yl)propyl}-4-{4-[4-(3,4-dichlorophenyl)-1-piperzinyl]phenyl}-3-(2H,4H)-1,2,4-triazolone] | 0.25 | 0.12 | 0.25 | 0.12 | <0.03 | 0.25 | <0.03 | 0.12 | <0.03 | <0.03 | <0.03 | 0.12 (≈ 0.187 µM)
C[C@@H](n1ncn(-c2ccc(N3CCN(c4ccc(Cl)c(Cl)c4)CC3)cc2)c1=O)[C@@](O)(Cn1cncn1)c1ccc(F)cc1F [Compound 8, 2-{[1R2S/1S2R]-2-(2,4-Difluorophenyl)-2-hydroxy-1-methyl-3-(1H-1,2,4-triazol-1-yl)propyl}-4-{4-[4-(3,4-dichlorophenyl)-1-piperazinyl]phenyl}-3-(2H,4H)-1,2,4-triazolone] | >16 | >16 | >16 | >16 | 1.00 | >16 | <0.03 | >16 | >16 | 16.00 | 16.00 | 2 (≈ 3.12 µM)
C[C@@H](n1ncn(-c2ccc(N3CCN(c4cccc(C(F)(F)F)c4)CC3)cc2)c1=O)[C@](O)(Cn1cncn1)c1ccc(F)cc1F [Compound 9, 2-{[1R2R/1S2S]-2-(2,4-Difluorophenyl)-2-hydroxy-1-methyl-3-(1H-1,2,4-triazol-1-yl)propyl}-4-{4-[4-(3-trifluoromethylphenyl)-1-piperazinyl]phenyl}-3-(2H,4H)-1,2,4-triazolone] | 0.50 | 0.25 | 0.50 | 0.12 | <0.03 | 0.25 | <0.03 | 0.25 | <0.03 | <0.03 | <0.03 | 0.06 (≈ 0.0937 µM)
C[C@@H](n1ncn(-c2ccc(N3CCN(c4cccc(C(F)(F)F)c4)CC3)cc2)c1=O)[C@@](O)(Cn1cncn1)c1ccc(F)cc1F [Compound 10, 2-{[1R2S/1S2R]-2-(2,4-Difluorophenyl)-2-hydroxy-1-methyl-3-(1H-1,2,4-triazol-1-yl)propyl}-4-{4-[4-(3-trifluoromethylphenyl)-1-piperazinyl]phenyl}-3-(2H,4H)-1,2,4-triazolone] | >16 | 0.50 | >16 | 1.00 | <0.03 | 0.50 | <0.03 | 1.00 | <0.03 | 0.06 | <0.03 | 0.06 (≈ 0.0937 µM)
Cc1nn([C@H](C)[C@@](O)(Cn2cncn2)c2ccc(F)cc2F)c(=O)n1-c1ccc(N2CCN(c3ccc(Cl)cc3Cl)CC2)cc1 [Compound 34, 2-{[1R2S/1S2R]-2-(2,4-Difluorophenyl)-2-hydroxy-1-methyl-3-(1H-1,2,4-triazol-1-yl)propyl}-4-{4-[4-(2,4-dichlorophenyl)-1-piperazinyl]phenyl}-3-(2H,4H)-5-methyl-1,2,4-triazolone] |  | 0.50 | 2.00 | 1.00 | 0.25 | 1.00 | <0.03 | 1.00 | <0.03 | 0.25 | <0.03 | 0.12 (≈ 0.183 µM)
